Results taken from patent publication EP3722296B1, “DIHYDRONAPHTHYRIDINES AND RELATED COMPOUNDS USEFUL AS KINASE INHIBITORS FOR THE TREATMENT OF PROLIFERATIVE DISEASES” (Deciphera Pharmaceuticals, LLC, priority 2012, dated 2013).

Assays:
c-KIT D816V kinase = biological target: T1, c-KIT D816V kinase (Homo sapiens, UniProt P10721, D816V); assay: c-KIT D816V kinase Assay; format: biochemical; conditions: enzymatic assay, ATP 200 uM
T1 construct: residues T544-V976 with N-terminal GST fusion; purchased deCODE Biostructures
T1 sequence (P10721 544-976 D816V): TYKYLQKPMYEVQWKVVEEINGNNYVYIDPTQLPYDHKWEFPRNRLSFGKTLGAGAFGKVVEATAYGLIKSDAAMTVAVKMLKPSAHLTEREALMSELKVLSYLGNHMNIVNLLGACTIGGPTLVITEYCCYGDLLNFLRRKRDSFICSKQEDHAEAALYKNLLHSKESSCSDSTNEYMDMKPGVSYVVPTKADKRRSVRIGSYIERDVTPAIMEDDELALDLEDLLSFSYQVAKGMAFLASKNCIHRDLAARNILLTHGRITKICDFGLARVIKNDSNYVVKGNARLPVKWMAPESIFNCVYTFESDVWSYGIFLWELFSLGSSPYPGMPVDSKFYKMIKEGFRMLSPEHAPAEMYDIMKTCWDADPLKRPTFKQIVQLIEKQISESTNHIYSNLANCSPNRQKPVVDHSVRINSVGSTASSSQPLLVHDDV
Experimental: (§1) In this assay, the oxidation of NADH (measured by decrease in absorbance at 340 nm) was continuously monitored spectrophotometrically. […] The inhibition reaction was started by mixing serial diluted test compound with the above reaction mixture. The absorption at 340 nm was monitored continuously for 5 hours at 30 °C on Synergy 2 plate reader (BioTech).
(§2) The protein construct was prepared by deCODE Biostructures using procedures known in the art. The construct contains residues T544-V976 of cKit, an N-terminal tag, a GST-fusion sequence and a TEV cleavage site. This construct is identical to Seq ID no.

c-KIT V654A kinase = biological target: T2, c-KIT V654A kinase (Homo sapiens, UniProt P10721, V654A); assay: c-KIT V654A Kinase Assay; format: biochemical; conditions: enzymatic assay, ATP 200 µM
T2 construct: residues T544-V976 with N-terminal GST fusion; purchased deCODE Biostructures
T2 sequence (P10721 544-976 V654A): as the sequence (P10721 544-976 D816V) above, with V111A, V273D counted along it
Experimental: as §1, with “6” for “5”
as §2

c-KIT kinase = c-KIT kinase (Homo sapiens, UniProt P10721); assay: c-KIT kinase Assay; format: biochemical; design: cKIT residues T544-V976; GST (N); TEV cleavage site (internal); purchased deCODE Biostructures; conditions: enzymatic assay, ATP 200 µM; read-out: KIT (wt) IC50
Chain of c-KIT kinase (P10721 544-976): as the sequence (P10721 544-976 D816V) above, with V273D counted along it
Experimental: In this assay, the oxidation of NADH (measured by decrease in absorbance at 340 nm) was continuously monitored spectrophotometrically. […] The absorption at 340 nm was monitored continuously for 2 hours at 30 °C on Synergy 2 (BioTeK). The reaction rate was calculated using the 0 to 1 h time frame. Percent inhibition was obtained by comparison of reaction rate with that of a control (i.e. with no test compound). IC50 values were calculated from a series of percent inhibition values determined at a range of inhibitor concentrations using software routines as implemented in the GraphPad Prism software package. The protein construct was prepared by deCODE Biostructures using procedures known in the art. The construct contains […] of cKit, an N-terminal tag, a GST-fusion sequence and a TEV cleavage site. [formula]

c-KIT D816H kinase = biological target: T3, c-KIT D816H kinase (Homo sapiens, UniProt P10721, D816H); assay: c-KIT D816H Kinase Assay; format: biochemical; conditions: enzymatic assay, ATP 200 µM
T3 construct: The construct contains residues T544-V976 of cKit; GST (N); TEV cleavage site (internal); purchased deCODE Biostructures
T3 sequence (P10721 544-976 D816H): as the sequence (P10721 544-976 D816V) above, with V273H counted along it
Experimental: as §1, with “6” for “5”, “(BioTech). […] The protein construct was prepared by deCODE Biostructures using procedures known in the art. The construct contains […] of cKit, an N-terminal tag, a GST-fusion sequence and a TEV cleavage site. This construct is identical to Seq ID no.” for “(BioTech).”

c-KIT T670I kinase = biological target: T4, c-KIT T670I kinase (Homo sapiens, UniProt P10721, T670I); assay: c-KIT T670I kinase assay; format: biochemical; conditions: enzymatic assay
T4 construct: The construct contains residues T544-V976 of cKit; GST (N); TEV cleavage site (internal); purchased deCODE Biostructures
T4 sequence (P10721 544-976 T670I): as the sequence (P10721 544-976 D816V) above, with T127I, V273D counted along it
Experimental: In this assay, the oxidation of NADH (measured by decrease in absorbance at 340 nm) was continuously monitored spectrophotometrically. […] The inhibition reaction was started by mixing serial diluted test compound with the above reaction mixture. The absorption at 340 nm was monitored continuously for 5 hours at 30 °C on Synergy 2 plate reader (BioTech). […] The protein construct was prepared by deCODE Biostructures using procedures known in the art. The construct contains […] of cKit, an N-terminal tag, a GST-fusion sequence and a TEV cleavage site. This construct is identical to Seq ID no. 1 except for the T670I mutation. [formula] [formula]

GIST T1 cells = assay: GIST T1 Cell Proliferation Assay; format: cell-based; conditions: Homo sapiens, GISTT1, 72 h, 68 hours + 4 hours resazurin
Experimental: (§3) GIST48, GIST430, and GIST882 cells were obtained from J. Fletcher (Brigham and Women's Hospital, Boston, MA). GIST T1 cells were obtained from B. Rubin (Cleveland Clinic, Cleveland, OH) and Professor Takahiro Taguchi (Kochi Medical School, Nankoku, Kochi, Japan). Briefly, GIST48 and GIST 882 cells were grown in RPMI 1640 medium supplemented with 15% characterized fetal bovine serum (Invitrogen, Carlsbad, CA), 1 unit/mL penicillin G, 1 µg/ml streptomycin, and 0.29 mg/mL L-glutamine at 37 °C, 5% CO2, and 95% humidity. GIST430 cells were grown in Ham's F10 medium supplemented with 15% characterized fetal bovine serum (Invitrogen, Carlsbad, CA), 30 mg/L bovine pituitary extract (BD Biosciences, San Jose, CA), 0.5% Mito+ serum extender (BD Biosciences, San Jose, CA), 1 unit/mL penicillin G, 1 µg/ml streptomycin, and 0.29 mg/mL L-glutamine at 37 °C, 5%CO2, 95% humidity. GIST T1 cells were grown in DMEM medium supplemented with 10% characterized fetal bovine serum (Invitrogen, Carlsbad, CA), 1 unit/mL penicillin G, 1 µg/ml streptomycin, and 0.29 mg/mL L-glutamine at 37 °C, 5% CO2, and 95% humidity.
A serial dilution of test compound was dispensed into a 384-well black clear bottom plate (Corning, Corning, NY). One thousand two-hundred fifty cells were added per well in 50 µL complete growth medium. Plates were incubated for 68 hours at 37 °C, 5% CO2, 95% humidity. At the end of the incubation period 10 µL of a 440 µM solution of resazurin (Sigma, St. Louis, MO) in PBS was added to each well and incubated for an additional 4 hours at 37 °C, 5% CO2, 95% humidity. Plates were read on a Synergy2 reader (Biotek, Winooski, VT) using an excitation of 540 nm and an emission of 600 nm.

Phospho-KIT (Tyr719) = assay: GIST48 KIT Western Blot; format: cell-based; conditions: GIST48 cells, 4 hours, serum-free medium; read-out: pKIT suppression by western blot analysi GIST48
Experimental: as §3, with “Briefly, GIST48 and GIST 882 cells were grown in RPMI 1640 medium supplemented with 15% characterized fetal bovine serum (Invitrogen, Carlsbad, CA), 1 unit/mL penicillin G, 1 µg/ml streptomycin, and 0.29 mg/mL L-glutamine at 37 °C, 5% CO2, and 95% humidity.” left out
Two hundred fifty thousand cells were added per well in a 24-well tissue-culture treated plate. […] Medium was aspirated, cells were washed with PBS, and serum-free RPMI1640 medium was added. […] Cells were washed with PBS, then lysed. Cell lysates were separated by SDS-PAGE and transferred to PVDF. Phospho-KIT (Tyr719) was detected using an antibody from Cell Signaling Technology (Beverly, MA), ECL Plus detection reagent (GE Healthcare, Piscataway, NJ) and a Molecular Devices Storm 840 phosphorimager in fluorescence mode. Blots were stripped and probed for total KIT using an antibody from Santa Cruz Biotech (Santa Cruz, CA). IC50 values were calculated using Prism software (Graphpad, San Diego, CA).

Row | SMILES | IC50 (c-KIT D816V kinase) [nM] | IC50 (c-KIT V654A kinase) [nM] | IC50 (c-KIT kinase) [nM] | IC50 (c-KIT D816H kinase) [nM] | IC50 (c-KIT T670I kinase) [nM] | IC50 (Phospho-KIT (Tyr719)) [nM] | IC50 (GIST T1 cells) [nM]
1 | CCn1c(=O)c(-c2cc(NC(=O)Nc3ccccc3F)c(F)cc2Cl)cc2cnc(NCCOC)cc21 [Example 35, 1-(4-chloro-5-(1-ethyl-7-(2-methoxyethylamino)-2-oxo-1,2-dihydro-1,6-naphthyridin-3-yl)-2-fluorophenyl)-3-(2-fluorophenyl)urea] | 10 to 100 | 10 to 100 | < 10 | 10 to 100 | 100 to 1000 | – | –
2 | CCn1c(=O)c(-c2cc(NC(=O)Nc3ccccc3)c(F)cc2C)cc2cnc(NCCOC)cc21 [Example 37, 1-(5-(1-ethyl-7-(2-methoxyethylamino)-2-oxo-1,2-dihydro-1,6-naphthyridin-3-yl)-2-fluoro-4-methylphenyl)-3-phenylurea] | 10 to 100 | 10 to 100 | < 10 | 10 to 100 | 100 to 1000 | – | –
3 | CCn1c(=O)c(-c2cc(NC(=O)Nc3ccc(F)c(CN4CCCC4)c3)c(F)cc2Cl)cc2cnc(NC)cc21 [Example 97, 1-(4-chloro-5-(1-ethyl-7-(methylamino)-2-oxo-1,2-dihydro-1,6-naphthyridin-3-yl)-2-fluorophenyl)-3-(4-fluoro-3-(pyrrolidin-1-ylmethyl)phenyl)urea] | – | – | – | – | – | – | < 10
4 | CC(=O)Nc1cc2c(cn1)cc(-c1cc(NC(=O)Nc3cccc(F)c3)c(F)cc1Cl)c(=O)n2C(C)C [Example 99, N-(3-(2-chloro-4-fluoro-5-(3-(3-fluorophenyl)ureido)phenyl)-1-isopropyl-2-oxo-1,2-dihydro-1,6-naphthyridin-7-yl)acetamide] | – | – | – | – | – | – | < 10
5 | CCn1c(=O)c(-c2cc(NC(=O)Nc3ccc(F)c(CN4CCOCC4)c3)c(F)cc2Cl)cc2cnc(NC=O)cc21 [Example 107, N-(3-(2-chloro-4-fluoro-5-(3-(4-fluoro-3-(morpholinomethyl)phenyl)ureido)phenyl)-1-ethyl-2-oxo-1,2-dihydro-1,6-naphthyridin-7-yl)formamide] | – | – | – | – | – | – | 10 to 100

The next lines start with results.

Row | IC50 (c-KIT D816V kinase) [nM] | IC50 (c-KIT V654A kinase) [nM] | IC50 (c-KIT kinase) [nM] | IC50 (c-KIT D816H kinase) [nM] | IC50 (c-KIT T670I kinase) [nM] | IC50 (Phospho-KIT (Tyr719)) [nM] | SMILES | IC50 (GIST T1 cells) [nM]
6 | 100 to 1000 | 100 to 1000 | 10 to 100 | 10 to 100 | 10 to 100 | – | CCn1c(=O)c(-c2cc(NC(=O)Nc3ccc(F)c(CN4CCN(C)CC4)c3)c(F)cc2C)cc2cnc(NC)cc21 [Example 89, 1-(5-(1-ethyl-7-(methylamino)-2-oxo-1,2-dihydro-1,6-naphthyridin-3-yl)-2-fluoro-4-methylphenyl)-3-(4-fluoro-3-((4-methylpiperazin-1-yl)methyl)phenyl)urea] | –
7 | 10 to 100 | 10 to 100 | < 10 | 10 to 100 | 10 to 100 | – | CCn1c(=O)c(-c2cc(NC(=O)Nc3cccc(C#N)c3)c(F)cc2Cl)cc2cnc(NC)cc21 [Example 91, 1-(4-chloro-5-(1-ethyl-7-(methylamino)-2-oxo-1,2-dihydro-1,6-naphthyridin-3-yl)-2-fluorophenyl)-3-(3-cyanophenyl)urea] | –
8 | 100 to 1000 | – | < 10 | – | 10 to 100 | – | CCn1c(=O)c(-c2cc(NC(=O)Nc3ccc(F)c(CN4CCOCC4)c3)c(F)cc2Cl)cc2cnc(NC)cc21 [Example 95, 1-(4-chloro-5-(1-ethyl-7-(methylamino)-2-oxo-1,2-dihydro-1,6-naphthyridin-3-yl)-2-fluorophenyl)-3-(4-fluoro-3-(morpholinomethyl)phenyl)urea] | < 10
9 | – | – | – | – | – | 10 to 100 | Cc1cc(F)c(NC(=O)Nc2ccccc2)cc1-c1cc2cnc(NC(=O)N3CCC3)cc2n(C(C)C)c1=O [Example 109, N-(3-(4-fluoro-2-methyl-5-(3-phenylureido)phenyl)-1-isopropyl-2-oxo-1,2-dihydro-1,6-naphthyridin-7-yl)azetidine-1-carboxamide] | –
10 | 10 to 100 | 10 to 100 | 10 to 100 | 10 to 100 | 10 to 100 | < 10 | CCn1c(=O)c(-c2cc(NC(=O)Nc3ccccc3)c(F)cc2C)cc2cnc(NC(=O)N3CCC3)cc21 [Example 110, N-(1-ethyl-3-(4-fluoro-2-methyl-5-(3-phenylureido)phenyl)-2-oxo-1,2-dihydro-1,6-naphthyridin-7-yl)azetidine-1-carboxamide] | –
11 | 10 to 100 | 100 to 1000 | 10 to 100 | < 10 | 10 to 100 | – | CCn1c(=O)c(-c2cc(NC(=O)Nc3ccccc3)c(F)cc2C)cc2cnc(NC(=O)N3CC(N(C)C)C3)cc21 [Example 113, 3-(dimethylamino)-N-(1-ethyl-3-(4-fluoro-2-methyl-5-(3-phenylureido)phenyl)-2-oxo-1,2-dihydro-1,6-naphthyridin-7-yl)azetidine-1-carboxamide] | –
